Experimental data taken from patent US7915238B2, “Immunomodulatory compounds and methods of use thereof” (Eisai R & D Management Co., Ltd., priority 1999, dated 2011).
Several values for one entry are separate records, joined by “and”; a condition that tells them apart may be missing. Equal entries are not always repeated.

Assays:
normal mouse splenocytes = assay: Cytokine release from murine splenocytes; format: cell-based, C57BL6 mice; conditions: 24 hours culture with test compound
Experimental: The ability of compounds to stimulate cytokine release from splenocytes can be assessed in a mouse model. Spleen cells harvested from C57BL6 mice are cultured for 24 hours in RPMI 1640 cell culture medium containing 5% FBS, 1 mM sodium pyruvate, 2 mM L-glutamine, 100 U/ml penicillin/streptomycin and 50 μM beta-mercaptoethanol, various concentrations of test compound for 20-24 hours, after which the cell culture supernatant is tested for the presence of cytokines.
Spleen cells harvested from mice were cultured for 24 house with test compound and the supernatant was tested for release of cytokines.

THP-1 cells = assay: TNF-alpha promoter secreted alkaline phosphatase (TNF-PLAP) reporter in THP-1 cells; format: cell-based, human; conditions: absence and presence of 10% serum; FIG. 3
Experimental: Similar results can be obtained when compounds of the invention are tested in a cell-culture model. In this assay, compounds of the invention are tested for their ability to stimulate secretion of alkaline phosphatase from THP-1 cells that have been transfected with the gene for secreted alkaline phosphatase under the control of the TNF-alpha promoter, as described in detail in Goto et al., Molecular Pharmacology 49; 860-873 (1996). In this assay, however, the effects of removing serum^1—a condition that may more-likely mimic a subcutaneous environment—can be evaluated. As shown in FIG. 2 and described in Table 1, results from these assays indicate that compounds of the invention stimulate induction of genes under the control of the TNF-alpha promoter when added to cells in the absence as well as the presence of serum. ^1 This is important to determine if serum components such as lipopolysaccharide binding protein are necessary for drug activity.

[1] = test system: mouse macrophage line RAW 264.7; assay: Tolerization to TLR family ligands, TNF-alpha release; format: cell-based; conditions: pretreated 24 hours at 0.1 μg/mL
Experimental: Cells of the mouse macrophage line RAW 264.7 were plated in RPMI 1640 complete culture medium (10% fetal bovine serum, 1 mM sodium pyruvate, 2 mM L-glutamine, 100 U/mL penicillin/streptomycin and 50 μM β-mercaptoethanol). Cells were treated for 24 hours with the TLR4 ligand ER-803022 at 0.1 μg/mL by addition of a concentrated stock solution. Negative control cells were treated with an equivalent volume of PBS. After 24 hours, cells were washed twice in RPMI 1640 complete medium and incubated in medium alone for 3 hours. Cultures were then restimulated with the following synthetic TLR ligands: lipopeptide (S-lipo, a ligand for TLR2) at 0.1 μg/mL, ER-803022 at 0.1 μg/mL, a mouse CpG oligonucleotide of the sequence […] (a ligand of murine TLR9) at 0.5 μg/mL, or PBS. Supernatants were taken at 3 and 4 hours and cytokine levels were determined by ELISA.

EGFRvIII peptide = assay: EGFRvIII peptide-specific antibody titers after immunization (ELISA); format: in vivo, C57/BL6J mice; conditions: s.c. with 25 μg peptide-KLH, 804057 3 μg, GM-CSF 5 μg
Text: To determine whether an adjuvant can enhance the effect of an oncology antigen (i.e., an antigen that can be used to vaccinate a subject individual against a cancer), C57/BL6J mice were immunized subcutaneously with a tumor-associated peptide, LEEKKGNYVVTDHC (SEQ ID NO:2) (derived from a mutant form of EGFR, […]) conjugated to the protein carrier keyhole limpet hemocyanin (KLH), with or without Compound 804057 or murine GM-CSF, a cytokine used in cancer vaccine trials to boost immune response. Compound 804057 was dosed at 3 μg, GM-CSF at 5 μg and the peptide-KLH conjugate at 25 μg per dose. Mice were immunized three times at intervals of three weeks. Serum was prepared from mice two weeks after each immunization and tested for […] peptide-specific antibodies using ELISA on plates coated with EGFRvIII peptide conjugated to bovine serum albumin. The results in Table 3 are presented as titers from individual animals. The titer is defined as the last serum dilution at which a signal at 0.25 OD units above background was observed.

[2] = titer = last serum dilution 0.25 OD above background

Row | Molecule | IL-10 release from splenocytes (normal mouse splenocytes) | interferon-gamma release from splenocytes (normal mouse splenocytes) | stimulation of alkaline phosphatase expression from TNF promoter reporter (TNF-PLAP) (THP-1 cells) | other results
1 | CCCCCC/C=C\CCCC(=O)O[C@H](CCCCCCC)CCOCC(COP(=O)([O-])OCCNC(=O)CCCCCCCCC(=O)NCCOP(=O)([O-])OCC(COCC[C@@H](CCCCCCC)OC(=O)CCC/C=C\CCCCCC)NC(=O)CC(=O)CCCCCCCCCCC)NC(=O)CC(=O)CCCCCCCCCCC.[Na+].[Na+] (some centres unmarked) [ER 111231] | stimulated | stimulated |  | 
2 | CCCCCC/C=C\CCCC(=O)O[C@H](CCCCCCC)CCOCC(COP(=O)([O-])OCCNC(=O)NCCOP(=O)([O-])OCC(COCC[C@@H](CCCCCCC)OC(=O)CCC/C=C\CCCCCC)NC(=O)CC(=O)CCCCCCCCCCC)NC(=O)CC(=O)CCCCCCCCCCC.[Na+].[Na+] (some centres unmarked) [ER 111232] | stimulated | stimulated | stimulation of alkaline phosphatase expression | 
3 | CCCCCCCCCCCC(=O)CC(=O)NC(COCC[C@@H](CCCCCCC)OC(=O)CCCCCCCCCCC)COP(=O)([O-])OCCNC(=O)NCCOP(=O)([O-])OCC(COCC[C@@H](CCCCCCC)OC(=O)CCCCCCCCCCC)NC(=O)CC(=O)CCCCCCCCCCC.[Na+].[Na+] (some centres unmarked) [ER 112066] | stimulation of IL-10 release | stimulation of interferon-gamma release | stimulation of alkaline phosphatase expression | 
4 | CCCCCC/C=C\CCCC(=O)O[C@H](CCCCCCC)CCOCC(COP(=O)([O-])OCCNC(=O)CC(=O)NCCOP(=O)([O-])OCC(COCC[C@@H](CCCCCCC)OC(=O)CCC/C=C\CCCCCC)NC(=O)CC(=O)CCCCCCCCCCC)NC(=O)CC(=O)CCCCCCCCCCC.[Na+].[Na+] (some centres unmarked) [ER 113651] | stimulated | stimulated |  | 
5 | CCCCCCCCCCCCCC(=O)N[C@H](COCC[C@@H](CCCCCCC)OC(=O)CCCCCCCCCCC)COP(=O)([O-])OCCNC(=O)NCCOP(=O)([O-])OC[C@@H](COCC[C@@H](CCCCCCC)OC(=O)CCCCCCCCCCC)NC(=O)CCCCCCCCCCCCC.[Na+].[Na+] [ER 803022] |  |  |  | TNF-alpha release in response to CpG oligonucleotide, a TLR9 ligand ([1]; restimulated with CpG 0.5 μg/mL): diminished release of TNF-alpha; TNF-alpha release upon subsequent exposure to ER803022 (TLR4 ligand) ([1]; restimulated with ER-803022 0.1 μg/mL, vs not pretreated): released less TNF-alpha; TNF-alpha release in response to TLR2 ligand S-lipoprotein ([1]; restimulated with S-lipo 0.1 μg/mL): diminished release of TNF-alpha
6 | GM-CSF: murine GM-CSF, a cytokine used in cancer vaccine trials to boost immune response (protein, UniProt P01587 18-141, looked up) Granulocyte-macrophage …: APTRSPITVTRPWKHVEAIKEALNLLDDMPVTLNEEVEVVSNEFSFKKLTCVQTRLKIFEQGLRGNFTKLKGALNMTASYYQTYCPPTPETDCETQVTTYADFIDSLKTFLTDIPFECKKPGQK |  |  |  | Geometric mean titer, IgG1 (EGFRvIII peptide): 24000; Geometric mean titer, IgG2a (EGFRvIII peptide): 3568; Antibody titers to EGFRvIII peptide, IgG1, individual animals (EGFRvIII peptide; [2]): 12000 (3×) and 24000 (2×) and 48000 (3×); Antibody titers to EGFRvIII peptide, IgG2a, individual animals (EGFRvIII peptide; [2]): 3000 (2×) and 6000 (3×) and 24000 and 750 (2×)
